Consider one substance from patent US7276337B2, “Compositions and methods for visual ribonuclease detection assays” (Integrated DNA Technologies, Inc., priority 2000, dated 2007).

The target in data set [1] is RNase T1 (Aspergillus oryzae, UniProt P00651). Briefly: Fluorometric detection nuclease assay, RNase T1. In kind it is biochemical. The settings on record: Substrate 50 nM, 37° C. 1 hour. The procedure:
Nuclease assays were conducted using the method of the invention. The Substrate (SEQ ID NO:30) was mixed in 1× Assay Buffer at a concentration of 50 nM (150 pmoles oligonucleotide in 3 mls volume). Test nucleases were added to respective Assay Mixes, including 1 ul of RNase A (1 ug), 1 ul of RNase 1 (100 units), or 1 ul of RNase T1 (1000 units). […] Assays were set up directly in cuvettes as follows:
Assay Mixes were incubated at 37° C. for 1 hour. Assays were transferred to cuvettes and fluorescence emission at 520 nm was measured using a PTI fluorometer with 490 nm excitation. Substrate SEQ ID NO:30, a preferred Substrate of the invention, reacted with (i.e., detected) all three RNase enzymes, verifying that Substrate compositions of the invention are sensitive to a variety of RNase enzymes.
Assays were conducted using the method of the invention with fluorometric detection. Substrate SEQ ID NO:30 was mixed in 1× Assay Buffer at a concentration of 50 nM (50 pmoles ODN in 1.0 ml volume) in RNase-free disposable cuvettes. […] Dilutions of stock RNase A, RNase 1, and RNase T1 were made in water. […] Assays were incubated at 37° C. for 1 hour and examined for fluorescence emission at 520 nm using 490 nm excitation in a PTI fluorometer. […]

Data set [2] deals with RNase 1 (Escherichia coli, UniProt P21338). Briefly: Visual detection ribonuclease assay, cleavage of Substrate by RNase 1. It is filed as biochemical, E. coli. As to conditions: final dilution factors of stock 10^−2 to 10^−7; Substrate 500 nM; room temperature 10 minutes. The procedure: It is commonly accepted that fluorometry provides for high sensitivity. To be useful, the visual method must also offer high sensitivity. Assays were conducted using the method of the invention with visual detection. Substrate SEQ ID NO:30 was mixed in 1× Assay Buffer at a concentration of 500 nM (50 pmoles ODN in 100 ul volume) in thin-walled, UV transparent tubes. […] Dilutions of stock RNase A, RNase 1, and RNase T1 were made in water. Undiluted and diluted nuclease (1 ul) was added to respective 100 ul Assay Mixes resulting in final dilution factors of 10^−2, 10^−3, 10^−4, 10^−5, 10^−6, and 10^−7. Assays were incubated at room temperature for 10 minutes and visually examined for fluorescence emission with UV excitation. […] The experiment took about 30 minutes to perform, including 15 minutes to set-up serial dilutions, 10 minutes incubation, and 5 minutes to visualize and photograph. Thus the method of the invention allows for a rapid, simple, and convenient visual assay for the presence of ribonuclease activity.

Data set [3] deals with RNase A, RNase 1, and RNase T1. As to the kind of experiment: Substrate optimization in ribonuclease assays (visual and fluorometric detection). It is filed as biochemical. The settings on record: 28 Substrate ODNs compared. The protocol: Nuclease assays were conducted using the method of the invention with both visual and fluorometric detection methods. Substrates were individually mixed in 1× Assay Buffer at a concentration of 50 nM (50 pmoles oligonucleotide in 1 ml volume) for fluorometric detection or at a concentration of 500 nM (50 pmoles of oligonucleotide in 100 ul volume) for visual detection. Test nucleases were added to respective Assay Mixes beginning at 1 ul stock reagent and proceeding with a 1:10 serial dilution until undetectable. Reaction mixes were incubated at 37° C. for 60 minutes. Fluorometric detection was performed as outlined in Example 2. Visual detection was performed as outlined in Example 1.
Different Substrates were examined for reactivity with RNase A, RNase 1, and RNase T1. A Substrate composition that contains all 4 ribonucleotide bases in an optimized sequence might be sensitive to most ribonuclease activities and could function as a stand-alone reagent for the Assay. Alternatively, a mix of Substrates could be used (for example, wherein one Substrate contains adenosine, one contains guanosine, one contains uridine, and one contains cytosine residues). Both possibilities were tested. […] Substrates having different base sequence were compared for sensitivity. […] Sequence dependence for RNase T1 was pronounced with cleavage preference being ‘gg’>‘gc’>‘ga’>‘gu’. […]

Data set [4] deals with T1, Ribonuclease T1 (Aspergillus oryzae, UniProt P00651).
T1 sequence (P00651 27-130): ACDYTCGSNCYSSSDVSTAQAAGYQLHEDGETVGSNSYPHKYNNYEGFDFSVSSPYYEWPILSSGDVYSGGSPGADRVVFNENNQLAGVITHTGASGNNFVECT
As to the kind of experiment: Visual detection ribonuclease assay, cleavage of Substrate ODN by RNase T1. In kind it is biochemical. Also on record: key to Sensitivity of Substrate ODN to Ribonuclease T1, relative signal intensity: +++ = maximum intensity; ++ = moderate intensity; + = faint but above background; − = negative (identical to background). The settings on record: Substrate 500 nM; for Sensitivity of Substrate ODN to Ribonuclease T1, relative signal intensity: visual inspection, UV excitation, 37° C. 60 minutes. An outline of the steps: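 Substrate ODNs at 500 nM in 1× Assay Buffer; RNase T1 serially diluted to final 0.001, 0.0001 and 0.00001 units/ml. After incubation (60 min at 37 °C, or 10 min at room temperature), fluorescence under UV excitation was inspected by eye and scored +++, ++, + or − by relative intensity.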

RNase 1, sequence (P21338 24-268): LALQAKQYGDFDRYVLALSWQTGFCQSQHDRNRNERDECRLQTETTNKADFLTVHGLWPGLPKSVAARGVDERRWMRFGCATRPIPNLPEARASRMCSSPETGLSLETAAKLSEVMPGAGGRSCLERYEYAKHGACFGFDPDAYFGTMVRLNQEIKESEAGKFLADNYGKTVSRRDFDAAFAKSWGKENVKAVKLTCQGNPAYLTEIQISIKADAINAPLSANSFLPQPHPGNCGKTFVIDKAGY

As for “5′ Fluorescein-AauggcA-QSY-7 3′ (NAAUGGCAN; 5' fluorescein and 3' QSY-7 labels, nucleotide chemistry not given here) [SEQ ID NO:30]”, in data set [1] (RNase T1 333 units/ml, emission 520 nm, 490 nm excitation), the “Reactivity with RNase T1 (fluorometer)” value is listed as “reacted”. Further, the “Enzyme Concentration, lowest tested reproducibly positive with signal:noise at least 2:1, RNase T1” value in data set [1] (fluorometric detection, dilution factor 10^−8) is reported as 0.00001 units/ml. Besides, the “Detection of RNase 1 activity by visual examination” value in data set [2] is on record as “clearly detectable”. For the same substance, in data set [3], the “Relative activity / sensitivity among Substrates tested” value was “most active”. The “Sensitivity of Substrate ODN to Ribonuclease T1, relative signal intensity” value in data set [4] (RNase T1 10^−3 units/ml), in data set [4] (RNase T1 10^−4 units/ml) and in data set [4] (RNase T1 10^−5 units/ml) was “+++” throughout. The “Detection of RNase T1 activity by visual examination” value in data set [4] (final dilution factors of stock 10^−2 to 10^−7, room temperature 10 minutes) is “clearly detectable”.
